Experimental findings from patent US9458133B2, “Isoquinolines as potassium ion channel inhibitors” (BRISTOL-MYERS SQUIBB COMPANY, priority 2013, dated 2016) are described below.

The assay deals with T1, human Kv 1.5 (Homo sapiens, UniProt P22460).
T1 construct: expressed in transfected cells; host or cells: mouse L-929 fibroblasts stably expressing human Kv1.5
Put plainly: Block of IKur current in patch clamped L-929 cells stably expressing human Kv1.5. The class given is cell-based. To be noted: patch clamped mammalian L-929 cells expressing human Kv1.5 (IKur); for inhibition at 0.3 µM: L929, 0.3 μM, read-out: KV1_5% Inh L929 @0.3 μM. From the text:
Synders, D. J. et al., “A rapidly activating and slowly inactivating potassium channel cloned from human heart: functional analysis after stable mammalian cell culture expression”, J. Gen. Physiol., 101:513-543 (1993). […]
(In general: Patch clamp records ionic current or voltage across a cell membrane.)

Several values for one entry are separate records, joined by “and”; a condition that tells them apart may be missing. Equal entries are not always repeated.

T1 sequence (P22460 whole entry): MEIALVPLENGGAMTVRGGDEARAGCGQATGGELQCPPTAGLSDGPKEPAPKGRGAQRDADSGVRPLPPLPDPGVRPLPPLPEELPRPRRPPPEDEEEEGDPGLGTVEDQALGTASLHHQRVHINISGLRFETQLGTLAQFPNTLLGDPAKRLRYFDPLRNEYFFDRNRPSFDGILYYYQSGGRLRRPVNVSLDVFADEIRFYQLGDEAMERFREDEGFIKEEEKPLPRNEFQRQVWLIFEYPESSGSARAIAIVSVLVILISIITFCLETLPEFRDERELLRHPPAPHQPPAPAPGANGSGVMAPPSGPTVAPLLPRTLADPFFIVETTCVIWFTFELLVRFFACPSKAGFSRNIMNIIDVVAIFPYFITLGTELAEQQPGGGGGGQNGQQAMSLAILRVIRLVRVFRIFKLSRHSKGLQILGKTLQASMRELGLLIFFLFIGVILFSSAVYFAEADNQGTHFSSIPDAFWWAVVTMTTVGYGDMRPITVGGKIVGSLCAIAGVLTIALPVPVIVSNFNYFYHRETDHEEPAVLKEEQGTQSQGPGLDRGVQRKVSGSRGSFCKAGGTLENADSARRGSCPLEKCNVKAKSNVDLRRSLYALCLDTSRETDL

As to `NS(=O)(=O)c1cncc(-c2cc3cccc(-c4ccccc4)c3c(NCc3ccccn3)n2)c1` [Example 1, 5-(8-Phenyl-1-(pyridin-2-ylmethylamino)isoquinolin-3-yl)pyridine-3-sulfonamide], the inhibition at 0.3 µM amounted to 95.1%.
With `Nc1cncc(-c2cc3cccc(-c4ccccc4)c3c(NCc3ccccn3)n2)c1` [Example 2, 3-(5-Aminopyridin-3-yl)-8-phenyl-N-(pyridin-2-ylmethyl)isoquinolin-1-amine], the inhibition at 0.3 µM is 66.2%.
The same measure, in the same setting: the figure for `CC(=O)Nc1cncc(-c2cc3cccc(-c4ccccc4)c3c(NCc3ccccn3)n2)c1` [Example 3, N-(5-(8-Phenyl-1-(pyridin-2-ylmethylamino)isoquinolin-3-yl)pyridin-3-yl)acetamide] is 71.9%; for `NC(=O)Nc1cncc(-c2cc3cccc(-c4ccccc4)c3c(NCc3ccccn3)n2)c1` [Example 4, 1-(5-(8-Phenyl-1-(pyridin-2-ylmethylamino)isoquinolin-3-yl)pyridin-3-yl)urea] it is 88.7%; for `NS(=O)(=O)Nc1cncc(-c2cc3cccc(-c4ccccc4)c3c(NCc3ccccn3)n2)c1` [Example 5] it is 75.6%.
On the same count and under the same terms, for `O=C(Nc1cccc(-c2cc3cccc(-c4ccccc4)c3c(NCc3ccccn3)n2)c1)N1CCOCC1` [Example 6, N-(3-(8-Phenyl-1-(pyridin-2-ylmethylamino)isoquinolin-3-yl)phenyl)morpholine-4-carboxamide] the value was 92.2%.
In the case of `NC(=O)CS(=O)(=O)c1cccc(-c2cc3cccc(-c4ccccc4)c3c(NCc3ccccn3)n2)c1` [Example 7, 2-(3-(8-Phenyl-1-(pyridin-2-ylmethylamino)isoquinolin-3-yl)phenylsulfonyl)acetamide], the inhibition at 0.3 µM was 34.8%.
Take `Cc1c(-c2cncc(S(N)(=O)=O)c2)nc(NCc2ccccn2)c2c(-c3ccccc3)cccc12` [Example 8, 5-(4-Methyl-8-phenyl-1-(pyridin-2-ylmethylamino)isoquinolin-3-yl)pyridine-3-sulfonamide]: the inhibition at 0.3 µM was determined as 61.4%.
As for `NC(=O)c1cncc(-c2cc3cccc(-c4ccccc4)c3c(NCc3ccccn3)n2)c1` [Example 9, 5-(8-Phenyl-1-((pyridin-2-ylmethyl)amino)isoquinolin-3-yl)nicotinamide], the “KV1_5% Inh L929 @0.3 μM” value (0.3 μM) is 81.32% and 50.45%.
As for `NS(=O)(=O)c1cncc(-c2c(Cl)nc(NCc3ccccn3)c3c(-c4ccccc4)cccc23)c1` [Example 10, 5-(3-Chloro-8-phenyl-1-(pyridin-2-ylmethylamino)isoquinolin-4-yl)pyridine-3-sulfonamide], the inhibition at 0.3 µM stood at 99%.
Take `NS(=O)(=O)c1cncc(-c2cnc(NCc3ccccn3)c3c(-c4ccccc4)cccc23)c1` [Example 11, 5-(8-Phenyl-1-(pyridin-2-ylmethylamino)isoquinolin-4-yl)pyridine-3-sulfonamide]: the inhibition at 0.3 µM is 98.9%.
With `O=C(O)c1cncc(-c2c(Cl)nc(NCc3ccccn3)c3c(-c4ccccc4)cccc23)c1` [Example 12, 5-(3-Chloro-8-phenyl-1-(pyridin-2-ylmethylamino)isoquinolin-4-yl)nicotinic acid], the inhibition at 0.3 µM was determined as 52.3%.
For the compound `NC(=O)CC(=O)Nc1cccc(-c2c(Cl)nc(NCc3ccccn3)c3c(-c4ccccc4)cccc23)c1` [Example 13, N1-(3-(3-Chloro-8-phenyl-1-(pyridin-2-ylmethylamino)isoquinolin-4-yl)phenyl)malonamide], the inhibition at 0.3 µM turned out to be 97.7%.
Take `Cc1nc(NCc2ccccc2)c2c(-c3ccccc3)cccc2c1-c1cncc(S(N)(=O)=O)c1` [Example 14, 5-(1-(Benzylamino)-3-methyl-8-phenylisoquinolin-4-yl)pyridine-3-sulfonamide]: the inhibition at 0.3 µM turned out to be 93.2%.
For the compound `NS(=O)(=O)c1cncc(-c2cnc(NCc3ccccc3)c3c(-c4ccccc4)cccc23)c1` [Example 15, 5-(1-(Benzylamino)-8-phenylisoquinolin-4-yl)pyridine-3-sulfonamide], the inhibition at 0.3 µM was 96.2%.
Regarding `N#Cc1nc(NCc2ccccc2)c2c(-c3ccccc3)cccc2c1-c1cncc(S(N)(=O)=O)c1` [Example 16, 5-(1-(Benzylamino)-3-cyano-8-phenylisoquinolin-4-yl)pyridine-3-sulfonamide], the inhibition at 0.3 µM was determined as 88.6%.
The same measure, in the same setting: for `NC(=O)c1nc(NCc2ccccc2)c2c(-c3ccccc3)cccc2c1-c1cncc(S(N)(=O)=O)c1` [Example 17, 1-(Benzylamino)-8-phenyl-4-(5-sulfamoylpyridin-3-yl)isoquinoline-3-carboxamide] the value was 93.5%; for `c1ccc(CNc2ncc(-c3cncc(-c4nn[nH]n4)c3)c3cccc(-c4ccccc4)c23)cc1` [Example 19, 4-(5-(2H-Tetrazol-5-yl)pyridin-3-yl)-N-benzyl-8-phenylisoquinolin-1-amine], 90%.
For `Cc1n[nH]c(C)c1-c1cc2cccc(-c3ccccc3)c2c(NCc2ccccn2)n1` [Example 20, 3-(3,5-dimethyl-1H-pyrazol-4-yl)-8-phenyl-N-(pyridin-2-ylmethyl)isoquinolin-1-amine], the inhibition at 0.3 µM is 64.5%.
For the compound `NS(=O)(=O)c1cncc(-c2cc3cccc(-c4ccc(F)cc4)c3c(NCc3ccccn3)n2)c1` [Example 21, 5-(8-(4-fluorophenyl)-1-(pyridin-2-ylmethylamino)isoquinolin-3-yl)pyridine-3-sulfonamide], the inhibition at 0.3 µM is 50.6%.
Still for that read-out and setting: the figure for `NS(=O)(=O)c1cncc(-c2cc3cccc(-c4ccccc4)c3c(NCc3ncccc3F)n2)c1` [Example 22, 5-(1-((3-fluoropyridin-2-yl)methylamino)-8-phenylisoquinolin-3-yl)pyridine-3-sulfonamide] is 94%; for `c1ccc(-c2cccc3cc(-c4cc[nH]n4)nc(NCc4ccccn4)c23)cc1` [Example 23, 8-phenyl-3-(1H-pyrazol-3-yl)-N-(pyridin-2-ylmethyl)isoquinolin-1-amine] it is 80.2%.
For the compound `CC(C)CNc1nc(-c2cncc(S(N)(=O)=O)c2)cc2cccc(-c3ccccc3)c12` [Example 24, 5-(1-(isobutylamino)-8-phenylisoquinolin-3-yl)pyridine-3-sulfonamide], the inhibition at 0.3 µM came to 41.5%.
`CC(C)CCNc1nc(-c2cncc(S(N)(=O)=O)c2)cc2cccc(-c3ccccc3)c12` [Example 25, 5-(1-(isopentylamino)-8-phenylisoquinolin-3-yl)pyridine-3-sulfonamide]: the inhibition at 0.3 µM is 53.2%.
In the case of `CC(Nc1nc(Cl)c(-c2cncc(S(N)(=O)=O)c2)c2cccc(-c3ccccc3)c12)c1ccccn1` (stereo not drawn) [Example 26, 5-(3-chloro-8-phenyl-1-(1-(pyridin-2-yl)ethylamino)isoquinolin-4-yl)pyridine-3-sulfonamide], the inhibition at 0.3 µM amounted to 98.8%.
As to `NS(=O)(=O)c1cncc(-c2c(Cl)nc(NCc3c(F)cccc3F)c3c(-c4ccccc4)cccc23)c1` [Example 27, 5-(3-chloro-1-(2,6-difluorobenzylamino)-8-phenylisoquinolin-4-yl)pyridine-3-sulfonamide], the inhibition at 0.3 µM is 93.6%.
`C1=C(c2cnc(NCc3ccccc3)c3c(-c4ccccc4)cccc23)CCOC1` [Example 28, N-benzyl-4-(3,6-dihydro-2H-pyran-4-yl)-8-phenylisoquinolin-1-amine]: the inhibition at 0.3 µM came to 76.1%.
Consider `NS(=O)(=O)c1cncc(-c2c(Cl)nc(NCC3CCOCC3)c3c(-c4ccccc4)cccc23)c1` [Example 29, 5-(3-chloro-8-phenyl-1-((tetrahydro-2H-pyran-4-yl)methylamino)isoquinolin-4-yl)pyridine-3-sulfonamide], for which the inhibition at 0.3 µM turned out to be 88.4%.
Still for that read-out and setting: for `CC(=O)Nc1ccccc1-c1cc2cccc(-c3ccccc3)c2c(NCc2ccccn2)n1` [Example 30, N-(2-(8-phenyl-1-(pyridin-2-ylmethylamino)isoquinolin-3-yl)phenyl)acetamide] the value was 51.3%.
In the case of `CC(=O)Nc1ccc(-c2cc3cccc(-c4ccccc4)c3c(NCc3ccccn3)n2)cc1` [Example 31, N-(4-(8-phenyl-1-(pyridin-2-ylmethylamino)isoquinolin-3-yl)phenyl)acetamide], the inhibition at 0.3 µM amounted to 15.2%.
With `CS(=O)(=O)N(c1cncc(-c2cc3cccc(-c4ccccc4)c3c(NCc3ccccn3)n2)c1)S(C)(=O)=O` [Example 32, N-(methylsulfonyl)-N-(5-(8-phenyl-1-(pyridin-2-ylmethylamino)isoquinolin-3-yl)pyridin-3-yl)methanesulfonamide], the inhibition at 0.3 µM worked out at 70.7%.
In the case of `NS(=O)(=O)c1ccc(-c2cc3cccc(-c4ccccc4)c3c(NCc3ccccn3)n2)cc1` [Example 33, 4-(8-phenyl-1-(pyridin-2-ylmethylamino)isoquinolin-3-yl)benzenesulfonamide], the inhibition at 0.3 µM came to 73.4%.
On to `CNS(=O)(=O)c1cccc(-c2cc3cccc(-c4ccccc4)c3c(NCc3ccccn3)n2)c1` [Example 34, N-methyl-3-(8-phenyl-1-(pyridin-2-ylmethylamino)isoquinolin-3-yl)benzenesulfonamide], for which the inhibition at 0.3 µM was determined as 93.5%.
The same measure, in the same setting: the figure for `CS(=O)(=O)Nc1cccc(-c2cc3cccc(-c4ccccc4)c3c(NCc3ccccn3)n2)c1` [Example 35, N-(3-(8-phenyl-1-(pyridin-2-ylmethylamino)isoquinolin-3-yl)phenyl)methanesulfonamide] is 36.2%.
On the same count and under the same terms, for `NS(=O)(=O)c1cccc(-c2cc3cccc(-c4ccccc4)c3c(NCc3ccccn3)n2)c1` [Example 36, 3-(8-phenyl-1-(pyridin-2-ylmethylamino)isoquinolin-3-yl)benzenesulfonamide] the value was 94.6%.
Still for that read-out and setting: for `NS(=O)(=O)c1cncc(-c2cc3cccc(-c4ccccc4)c3c(NCc3ccccc3Cl)n2)c1` [Example 37, 5-(1-(2-chlorobenzylamino)-8-phenylisoquinolin-3-yl)pyridine-3-sulfonamide] the value was 34.2%.
